Results as given in ChEMBL document CHEMBL1201862, “PubChem BioAssay data set” (2004).
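Assay format: 96-well plates, 48-hour exposure. At the GI50, growth is halved.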 The source made the active and inactive calls. No stated cut-off is given here; in the data, active = GI50 up to about 1.1 µM and inactive = higher.

Columns and labels:
Experiment in all cases: NCI tumour cell line growth inhibition, 48 h
[1] = test system: OVCAR-4
[2] = test system: SNB-19
[3] = test system: 786-0
[4] = test system: A549
[5] = test system: UACC-62
[6] = test system: K562
[7] = test system: SF-295
[8] = test system: EKVX
[9] = test system: CAKI-1
[10] = test system: OVCAR-5
[11] = test system: COLO 205
[12] = test system: Malme-3M
[13] = test system: UO-31
[14] = test system: SW-620
[15] = test system: SNB-75

CCCCCCCCC(=O)NCCCNCCCNC(=O)CCCCCCCC
GI50 [1]: 14.7 µM (inactive)
GI50 [2]: 19.1 µM (inactive)
GI50 [3]: 1.86 µM (inactive)
GI50 [4]: 14.3 µM (inactive)
GI50 [5]: 5.79 µM (inactive)
GI50 [6]: 2.18 µM (inactive)
GI50 [7]: 5.65 µM (inactive)
GI50 [8]: 14.9 µM (inactive)
GI50 [9]: 13 µM (inactive)
GI50 [10]: 15.2 µM (inactive)
GI50 [11]: 4.88 µM (inactive)
GI50 [12]: 12.6 µM (inactive)
GI50 [13]: 13.2 µM (inactive)
GI50 [14]: 2.54 µM (inactive)

O=C1C2CC=CCC2C(=O)C12CCc1ccccc12 (stereo not given)
GI50 [1]: > 100 µM (inactive)
GI50 [3]: > 100 µM (inactive)
GI50 [4]: > 100 µM (inactive)
GI50 [5]: > 100 µM (inactive)
GI50 [6]: > 100 µM (inactive)
GI50 [7]: > 100 µM (inactive)
GI50 [8]: > 100 µM (inactive)
GI50 [9]: > 100 µM (inactive)
GI50 [11]: > 100 µM (inactive)
GI50 [12]: > 100 µM (inactive)
GI50 [13]: > 100 µM (inactive)
GI50 [14]: > 100 µM (inactive)
GI50 [15]: > 100 µM (inactive)

COc1ccc(Nc2nc3ccc(C(F)(F)F)cc3nc2-c2ccccc2)cc1OC
GI50 [1]: > 100 µM (inactive)
GI50 [3]: 23.3 µM (inactive)
GI50 [4]: 39.5 µM (inactive)
GI50 [5]: 66.8 µM (inactive)
GI50 [6]: 31.4 µM (inactive)
GI50 [7]: 17.4 µM (inactive)
GI50 [8]: 20.7 µM (inactive)
GI50 [9]: 60.4 µM (inactive)
GI50 [10]: 52.7 µM (inactive)
GI50 [11]: 27.9 µM (inactive)
GI50 [12]: 51.9 µM (inactive)
GI50 [13]: 15.5 µM (inactive)
GI50 [14]: 68.4 µM (inactive)
GI50 [15]: > 100 µM (inactive)

Cc1nc2nnnn2c2c1C(=O)Nc1ccccc1N2
GI50 [2]: > 100 µM (inactive)
GI50 [3]: > 100 µM (inactive)
GI50 [4]: 62.1 µM (inactive)
GI50 [5]: > 100 µM (inactive)
GI50 [6]: > 100 µM (inactive)
GI50 [7]: > 100 µM (inactive)
GI50 [8]: 79.8 µM (inactive)
GI50 [11]: > 100 µM (inactive)
GI50 [12]: > 100 µM (inactive)
GI50 [13]: > 100 µM (inactive)
GI50 [14]: > 100 µM (inactive)
GI50 [15]: > 100 µM (inactive)

COc1ccc(CNc2cnc3ccc(N)cc3n2)cc1
GI50 [1]: > 100 µM (inactive)
GI50 [2]: > 100 µM (inactive)
GI50 [3]: > 100 µM (inactive)
GI50 [4]: > 100 µM (inactive)
GI50 [6]: > 100 µM (inactive)
GI50 [7]: > 100 µM (inactive)
GI50 [8]: > 100 µM (inactive)
GI50 [9]: > 100 µM (inactive)
GI50 [10]: > 100 µM (inactive)
GI50 [11]: 0.064 µM (active)
GI50 [12]: > 100 µM (inactive)
GI50 [13]: > 100 µM (inactive)
GI50 [14]: > 100 µM (inactive)
GI50 [15]: 64.6 µM (inactive)

NC1(CCCCCCCCCCC(=O)O)CNCCNCCNCCNC1
GI50 [1]: 30.9 µM (inactive)
GI50 [2]: 18.5 µM (inactive)
GI50 [3]: 36.7 µM (inactive)
GI50 [4]: 57.5 µM (inactive)
GI50 [5]: 47.6 µM (inactive)
GI50 [6]: 33.8 µM (inactive)
GI50 [7]: > 100 µM (inactive)
GI50 [8]: 94.6 µM (inactive)
GI50 [9]: 84.1 µM (inactive)
GI50 [10]: 16 µM (inactive)
GI50 [11]: 15.6 µM (inactive)
GI50 [12]: 78.3 µM (inactive)
GI50 [13]: > 100 µM (inactive)
GI50 [14]: 44.8 µM (inactive)

O=C(Cc1nc2ccccc2s1)NC12CC3CC(CC(C3)C1)C2
GI50 [1]: > 100 µM (inactive)
GI50 [2]: > 100 µM (inactive)
GI50 [3]: > 100 µM (inactive)
GI50 [4]: > 100 µM (inactive)
GI50 [5]: > 100 µM (inactive)
GI50 [6]: > 100 µM (inactive)
GI50 [7]: > 100 µM (inactive)
GI50 [8]: > 100 µM (inactive)
GI50 [9]: > 100 µM (inactive)
GI50 [12]: > 100 µM (inactive)
GI50 [13]: > 100 µM (inactive)
GI50 [14]: > 100 µM (inactive)
GI50 [15]: > 100 µM (inactive)

COc1ccc2c(c1)C(=O)N1CCOC1C2C(=O)O (stereo not given)
GI50 [1]: > 100 µM (inactive)
GI50 [2]: > 100 µM (inactive)
GI50 [3]: > 100 µM (inactive)
GI50 [4]: > 100 µM (inactive)
GI50 [5]: > 100 µM (inactive)
GI50 [6]: > 100 µM (inactive)
GI50 [7]: 4.08 µM (inactive)
GI50 [8]: > 100 µM (inactive)
GI50 [9]: > 100 µM (inactive)
GI50 [10]: > 100 µM (inactive)
GI50 [13]: > 100 µM (inactive)
GI50 [14]: > 100 µM (inactive)
GI50 [15]: > 100 µM (inactive)

CN(C)CCNC(=O)c1cccc2[nH]c(-c3cccnc3)nc12
GI50 [1]: 29.3 µM (inactive)
GI50 [2]: 28.1 µM (inactive)
GI50 [3]: 22.9 µM (inactive)
GI50 [4]: 19.8 µM (inactive)
GI50 [5]: 18.9 µM (inactive)
GI50 [6]: 27.9 µM (inactive)
GI50 [7]: 30.5 µM (inactive)
GI50 [8]: 22.8 µM (inactive)
GI50 [9]: 27.6 µM (inactive)
GI50 [10]: 28.1 µM (inactive)
GI50 [11]: 14.5 µM (inactive)
GI50 [13]: 17.8 µM (inactive)
GI50 [14]: 12.9 µM (inactive)
GI50 [15]: 20.9 µM (inactive)

CCOC(=O)NC(=O)c1cn(CCN2CCN(C(=O)CNC(=O)CNC(=O)Cn3cc(C(=O)NC(=O)OCC)c(=O)[nH]c3=O)CC2)c(=O)[nH]c1=O
GI50 [2]: > 100 µM (inactive)
GI50 [3]: > 100 µM (inactive)
GI50 [4]: > 100 µM (inactive)
GI50 [5]: > 100 µM (inactive)
GI50 [6]: > 100 µM (inactive)
GI50 [7]: > 100 µM (inactive)
GI50 [9]: > 100 µM (inactive)
GI50 [10]: > 100 µM (inactive)
GI50 [11]: > 100 µM (inactive)
GI50 [12]: > 100 µM (inactive)
GI50 [13]: > 100 µM (inactive)
GI50 [14]: > 100 µM (inactive)
GI50 [15]: > 100 µM (inactive)

COC(=O)/C(=N\NC(N)=S)C(C#N)c1ccccc1 (stereo not given)
GI50 [1]: > 100 µM (inactive)
GI50 [2]: > 100 µM (inactive)
GI50 [3]: > 100 µM (inactive)
GI50 [4]: > 100 µM (inactive)
GI50 [5]: > 100 µM (inactive)
GI50 [6]: > 100 µM (inactive)
GI50 [7]: > 100 µM (inactive)
GI50 [8]: > 100 µM (inactive)
GI50 [10]: > 100 µM (inactive)
GI50 [11]: > 100 µM (inactive)
GI50 [12]: > 100 µM (inactive)
GI50 [13]: > 100 µM (inactive)
GI50 [14]: > 100 µM (inactive)
GI50 [15]: 19 µM (inactive)

Cn1c(=O)c2c(nc3n2CCC(=O)N3)n(C)c1=O
GI50 [1]: > 100 µM (inactive)
GI50 [2]: > 100 µM (inactive)
GI50 [3]: > 100 µM (inactive)
GI50 [4]: > 100 µM (inactive)
GI50 [5]: > 100 µM (inactive)
GI50 [6]: > 100 µM (inactive)
GI50 [7]: > 100 µM (inactive)
GI50 [8]: > 100 µM (inactive)
GI50 [9]: > 100 µM (inactive)
GI50 [10]: > 100 µM (inactive)
GI50 [11]: > 100 µM (inactive)
GI50 [12]: > 100 µM (inactive)
GI50 [13]: > 100 µM (inactive)
GI50 [14]: > 100 µM (inactive)

O=C(NCCCC/N=c1/cccccc1NCCCCNC(=O)OCc1ccccc1)OCc1ccccc1
GI50 [1]: 18.9 µM (inactive)
GI50 [2]: 23.8 µM (inactive)
GI50 [3]: 16.4 µM (inactive)
GI50 [4]: 26.5 µM (inactive)
GI50 [5]: 19.4 µM (inactive)
GI50 [6]: 10.1 µM (inactive)
GI50 [7]: 13.5 µM (inactive)
GI50 [8]: 22.9 µM (inactive)
GI50 [9]: 20.9 µM (inactive)
GI50 [10]: 17.1 µM (inactive)
GI50 [12]: 20.4 µM (inactive)
GI50 [13]: 7.43 µM (inactive)
GI50 [14]: 17 µM (inactive)
GI50 [15]: 18.7 µM (inactive)

CCCCCCCCCCCCSC(=S)c1c(C)[nH]n(-c2ccccc2)c1=O
GI50 [1]: 8.36 µM (inactive)
GI50 [2]: 12.4 µM (inactive)
GI50 [3]: 15.6 µM (inactive)
GI50 [4]: 11.8 µM (inactive)
GI50 [5]: 3.52 µM (inactive)
GI50 [6]: 6.61 µM (inactive)
GI50 [7]: 12.5 µM (inactive)
GI50 [8]: 19.1 µM (inactive)
GI50 [9]: 19.1 µM (inactive)
GI50 [10]: 16.2 µM (inactive)
GI50 [11]: 15.3 µM (inactive)
GI50 [12]: 10.7 µM (inactive)
GI50 [13]: 13.6 µM (inactive)
GI50 [14]: 16.4 µM (inactive)
